The assay relates to sensory neurons from explants of rachidian ganglia of rat embryos. The assay is described as follows: Neurotrophic activity test: neurite outgrowth of dissociated sensory neurons. The assay is classed as cell-based. The settings on record: 72 hours incubation; for % compared to the control: control = case 1. The source says: In other respects, and forming the basis of the present invention, it has been discovered for a very small panel of structures limited to the only conjugates of aspartic and glutamic acids, an unexpected property that is a said-neurotrophic activity. This activity is also found in a class of endogenous proteins, the neurotrophins, and in particular in the “NGF” (or “nerve growth factor”), an essential growth and survival factor in the formation and the maintenance of the cutaneous nervous network (M. Bothwell, J. Invest. Dermatol. Symposium Proceedings (1997), vol. 2, pp. 27-30). This remarkable activity, without any connection with antioxidant properties of these compounds, has been evidenced through an in vitro test that consists in measuring the neurites outgrowth kinetics from rat embryos sensory neurons selected for their physiology very similar to the one of human sensory neurons.
Test: Evidence of the Neurotrophic Activity of Aminoacid Conjugates of Indolic Auxins
The experimental study has been achieved on dissociated sensory neurons from explants of rachidian ganglia of rat embryos, and prepared according to the method described by Hall A. K. and al (J. Neurosci. (1997), vol. 17, pp. 2775-2784). After dissection and dissociation, sensory neurons are at once incubated in the following culture media (in hexaplicate), according to three situations: • case 1: culture medium without NGF, and without active ingredient according to the invention (control) • case 2: culture medium without NGF, with an active ingredient according to the invention • case 3: culture medium with NGF (positive reference)
After an incubation time of 72 hours, cells are washed and fixed. They are then labelled by an anti β-tubulin antibody reacting with cellular bodies and outgrowths of neurons. After a disclosure with an Alexa Fluor 488 secondary antibody, colour picture inputs were proceeded (using “In Cell Analyzer 1000™”). These digital data are then used for measuring a relative density of neurite length compared to the non treated control (case 1).
The neurotrophic effect of tested compounds is expressed by an increase (in μm) of this density of neurite outgrowth of neurons, synonymous with a strengthended development kinetic of neuronal network and a better viability (survival) of this latter.

[1] abbreviates: 0.12 mg/ml, medium without NGF (case 2).
[2] abbreviates: 5.10^−6 mg/ml, medium with NGF (case 3, positive reference).

Regarding `O=C(O)C[C@H](NC(=O)Cc1c[nH]c2ccccc12)C(=O)O` [IAA-Asp], under setting [1], the “Average density of neurite outgrowth of sensory neurons” value (shortened to “Average density”) was found to be 6820 μm and the “% compared to the control” value is given as 108%.
As to `O=C(O)CC[C@H](NC(=O)Cc1c[nH]c2ccccc12)C(=O)O` [IAA-Glu, indolyl-3-acetylglutamic acid], under setting [1], the “Average density” value stood at 7335 μm and the “% compared to the control” value was 117%.
`O=C(O)C[C@H](NC(=O)CCCc1c[nH]c2ccccc12)C(=O)O` [IBA-Asp, indolyl-3-butyrylaspartic acid]: under setting [1], the “Average density” value is listed as 8297 μm and the “% compared to the control” value amounted to 132%.
Taken in the same sequence, the figures for `O=C(O)CC[C@H](NC(=O)CCCc1c[nH]c2ccccc12)C(=O)O` [IBA-Glu] were 7195 μm and 114%.
On to `O=C(O)C[C@H](NC(=O)CCc1c[nH]c2ccccc12)C(=O)O` [IPA-Asp], for which, under setting [1], the “Average density” value stood at 6980 μm and the “% compared to the control” value came to 111%.
For `O=C(O)CC[C@H](NC(=O)CCc1c[nH]c2ccccc12)C(=O)O` [IPA-Glu], in that order: 8247 μm and 131%.
Consider “NGF: nerve growth factor, a neurotrophin; positive reference (case 3)”, for which, under setting [2], the “Average density” value stood at 11750 μm and the “% compared to the control” value was 187%.

The record behind these values is patent US20090247602A1, “COSMETIC USE OF CONJUGATED COMPOUNDS OF INDOLIC AUXINS” (EXSYMOL S.A.M., priority 2008, published 2009).
